The text below walks through data of paper PMC12408761, “Impact of physical activity on ethoxy- and propoxypropanol human toxicokinetics in vivo” (Archives of Toxicology, 2025).

Read-outs that look alike come from different tables or passages of the source.

Details of data set [1]: method as in Groeseneken et al. [1986], [1987]. The note with it: humans; ref Groeseneken et al. [1986], [1987]; cited from earlier work.
Data set [2] is described as follows: Controlled human inhalation exposure (4 h in exposure chamber, at rest or with moderate physical activity): toxicokinetics in blood, urine and exhaled breath. The data set is classed as in vivo. As to conditions: for Time at which Cmax was reached (Tmax): time after start of exposure; for average Cmax in exhaled breath: for a same concentration of exposure; for Time at which Cmax was reached: urine and exhaled breath; for Increase of urinary absorption rate with physical activity versus rest: first 2 h of exposure. The protocol: All exposure sessions were performed under controlled conditions at the Department of Occupational and Environmental Health, Center for Primary Care and Public Health (Unisanté), University of Lausanne, in Switzerland. PGEE or PGPE air concentrations were generated in a 12 m^3 exposure chamber (Guillemin [1975]) and monitored electronically (Lab VIEW software, National Instruments Corporation, Texas, USA) with a portable infrared spectroscopy gas analyzer for ambient air analysis (GASMET™ analyzer DX-4040 Gasmet Oy, Helsinki technologies, Finland) (Devanthery et al. [2003]; Tomicic et al. [2011]). During each exposure session, the participant spent 4 h inside the exposure chamber, and then 2 h outside in a solvent-free area. Each participant took part in four different exposure sessions comprising four different experimental conditions. Three sessions were performed at rest at either 25, 30, and 35 ppm of PGEE or 15, 20, and 25 ppm of PGPE. The fourth session was performed with moderate physical activity at 35 ppm of PGEE or 25 ppm of PGPE (Fig. 1).
The air concentrations were below the existing OEL for PGEE, i.e., 50 ppm. Given the absence of an OEL for PGPE, the chosen concentrations were previously tested to ensure odor tolerance for participants. The participants performed the physical activity at 1.5 W/kg on an ergonomic bicycle (Corival, Lode B.V., Groningen, The Netherlands) for 30 min twice during the same exposure session: the first without solvent exposure and the second with PGEE or PGPE. The physical activity design was adapted after discussion with sports science researchers from the University of Lausanne. A minimum of 48 h between two exposure sessions was determined to avoid possible cumulative exposure (Borgatta et al. [2022]). Blood, urine, and exhaled breath samples were collected before, during, and after all exposure sessions. The timing of sample collection was based on previous studies and protocol testing.
The blood samples were collected with an intravenous catheter inserted in the participant’s forearm by a research nurse into glass tubes (Vacutainers® NH Heparine Sodium, Becton Dickinson AG, Basel, Switzerland). A first blood sample was collected before the exposure session in a solvent-free area and used as baseline value. The timing following the first blood sample was 30, 120, 180, 240, 255, 300, and 360 min after the exposure to PGE started. The last blood sample was collected 24 h post-exposure. The blood samples were kept in the dark at 4 °C until analysis.
The participants were asked to provide a urine sample before the exposure session (solvent-free area, baseline) and then, every 2 h over 6 h. The participants continued to collect their urine (ad lib) samples at home for additional 24 h and bring them back in a cooler with cooling elements the day after the exposure session. They provided urine collection date, time, and total urinary volume. All urine samples were stored in polypropylene cups in the dark at 4 °C (Borgatta et al. [2021]). The cold storage is important to avoid any loss of substance as glycol ethers are volatile organic compounds.
The exhaled breath samples were collected using a non-invasive simple-to-use device for biological exposure monitoring of volatile organic compounds (BioVOC-2 Breath Sampler, Brechbühler, Schlieren, Switzerland). The last portion of expired breath (129 mL) was collected on thermal desorption (TD) tubes (Tenax® TA, Camsco, Böckten, Switzerland) from each participant. A first exhaled breath sample was collected before the exposure session in a solvent-free area (baseline). The timing following the first exhaled breath sample was 120, 240, 255, 260, 265, 270, 275 and 360 min after exposure had started and a last one 24 h post exposure. Exhaled breath samples were analyzed immediately after collection. […]

[3] abbreviates: blood, at rest, 4 h inhalation, geometric mean ± SD.
[4] abbreviates: blood, physical activity, 35 ppm PGEE or 25 ppm PGPE, geometric mean ± SD.
[5] abbreviates: human, inhaled or intranasal, blood, at rest, 4 h inhalation (PGEE 25-35 ppm, PGPE 15-25 ppm), geometric mean ± SD.
[6] abbreviates: human, inhaled or intranasal, blood, at rest, 4 h inhalation, geometric mean ± SD, read-out: Cmax.
Where [7] appears, read: human, inhaled or intranasal, urine, at rest, 4 h inhalation (PGEE 25-35 ppm, PGPE 15-25 ppm), geometric mean ± SD.
The mark [8] stands for this setting: human, inhaled or intranasal, urine, at rest, 4 h inhalation, geometric mean ± SD, read-out: Cmax.
The mark [9] stands for this setting: human, inhaled, blood, at rest, for a same concentration of exposure (25 ppm), read-out: average Cmax in blood.
Setting [10] is: human, inhaled, blood, at rest, read-out: half-life in blood.
[11] abbreviates: human, inhaled, blood, physical activity (30 min, 1.5 W/kg), 35 ppm PGEE or 25 ppm PGPE, geometric mean ± SD.
Setting [12] is: human, inhaled, blood, physical activity, 35 ppm PGEE or 25 ppm PGPE, geometric mean ± SD, read-out: Cmax.
The mark [13] stands for this setting: human, inhaled, exhaled breath, all exposure conditions, read-out: Half-life (converted).
[14] abbreviates: human, inhaled, urine, physical activity (30 min, 1.5 W/kg), 35 ppm PGEE or 25 ppm PGPE, geometric mean ± SD.
Where [15] appears, read: human, inhaled, urine, physical activity, 35 ppm PGEE or 25 ppm PGPE, geometric mean ± SD, read-out: Cmax.
[16] abbreviates: urine, at rest, 4 h inhalation, geometric mean ± SD.
Where [17] appears, read: urine, physical activity, 35 ppm PGEE or 25 ppm PGPE, geometric mean ± SD.

On to `CCOCCO` [EGEE, ethylene glycol ethyl ether], for which, in data set [1], the “exhalation as share of the total uptake” value was “less than 0.4%”.
Consider `CCOCCOC(C)=O` [EGEEAc], for which the “exhalation as share of the total uptake” value in data set [1] was “less than 0.4%”.
Take `CCOCC(C)O` (centres unmarked) [PGEE, propylene glycol ethyl ether]: the “Absorption (absorption rate)” value stood at 0.013 ± 0 µg/mL/h*ppm in data set [2] (setting [3]), 0.038 ± 0.004 µg/mL/h*ppm in data set [2] (setting [4]), 0.010 ± 0.002 µg/mL/h*ppm in data set [2] (setting [16]) and 0.014 ± 0.003 µg/mL/h*ppm in data set [2] (setting [17]). Also, the “Time at which Cmax was reached (Tmax)” value in data set [2] (blood, at rest) is 240 min. Besides, the “Blood concentration following PGEE exposure compared to PGPE” value in data set [2] (blood, same concentration of exposure (25 ppm)) was 1.3 fold. Further, the “Share of total blood uptake quantified in exhaled breath (AUC exhaled breath / AUC blood)” value in data set [2] (exhaled breath) is listed as “less than 0.5%”. In addition, the “average Cmax in exhaled breath” value in data set [2] (exhaled breath, at rest) is 2.81 ± 0.76 ppm. For the same compound, the exposure (AUC) in data set [2] (setting [5]) is 7320 ng·h/mL; in data set [2] (setting [7]) it was 5050 ng·h/mL; in data set [2] (setting [11]) it was 16600 ng·h/mL; in data set [2] (setting [14]), 8820 ng·h/mL. In addition, the Cmax was 1070 ± 300 ng/mL in data set [2] (setting [6]); 1070 ± 210 ng/mL in data set [2] (setting [8]); 810 ± 80 ng/mL in data set [2] (setting [9]); 2760 ± 260 ng/mL in data set [2] (setting [12]); 1810 ± 470 ng/mL in data set [2] (setting [15]). Further, the half-life in data set [2] (setting [10]) was 60 min; in data set [2] (setting [13]), 2.88 min; in data set [2] (human, inhaled, urine, all exposure conditions, read-out: Half-life (converted)), 78 min. Moreover, the “Time at which Cmax was reached” value in data set [2] (all conditions) is “at the end of exposure”. Moreover, the “Increase of urinary absorption rate with physical activity versus rest” value in data set [2] (urine) worked out at 1.5 times.
In the case of `CCCOCC(C)O` (centres unmarked) [PGPE, propylene glycol propyl ether], the “Absorption (absorption rate)” value in data set [2] (setting [3]) was determined as 0.011 ± 0 µg/mL/h*ppm; in data set [2] (setting [4]), 0.024 ± 0.002 µg/mL/h*ppm; in data set [2] (setting [16]), 0.007 ± 0.0017 µg/mL/h*ppm; in data set [2] (setting [17]), 0.0087 ± 0.0008 µg/mL/h*ppm. The “Time at which Cmax was reached (Tmax)” value in data set [2] (blood, at rest) was 180 min. Also, the “Share of total blood uptake quantified in exhaled breath (AUC exhaled breath / AUC blood)” value in data set [2] (exhaled breath) was 1.1%. In addition, the “average Cmax in exhaled breath” value in data set [2] (exhaled breath, at rest) is 2.25 ± 0.66 ppm. Moreover, the exposure (AUC) in data set [2] (setting [5]) is 2650 ng·h/mL; in data set [2] (setting [7]), 1910 ng·h/mL; in data set [2] (setting [11]) it was 5130 ng·h/mL; in data set [2] (setting [14]), 3090 ng·h/mL. The Cmax amounted to 500 ± 130 ng/mL in data set [2] (setting [6]); 450 ± 110 ng/mL in data set [2] (setting [8]); 650 ± 90 ng/mL in data set [2] (setting [9]); 1230 ± 90 ng/mL in data set [2] (setting [12]); 710 ± 140 ng/mL in data set [2] (setting [15]). Also, the half-life in data set [2] (setting [10]) is 54 min; in data set [2] (setting [13]), 2.28 min; in data set [2] (human, inhaled, urine, all conditions, read-out: urinary half-life) it was 54 min; in data set [2] (urine, all exposure conditions), 54 min. In data set [2] (urine), the “Share of total blood uptake quantified in urine (AUC urine / AUC blood)” value turned out to be 69.5%. Besides, the “Time at which Cmax was reached” value in data set [2] (all conditions) was “at the end of exposure”. The “Increase of urinary absorption rate with physical activity versus rest” value in data set [2] (urine) is on record as “did not differ significantly”.

By AUC is commonly meant concentration integrated over time. A higher AUC goes with high exposure. One may read the Cmax as the maximum level reached in the sampled fluid or tissue. As a reminder, the half-life is the time in which the quantity being followed falls by half.
